Measured values taken from patent US20230248665A1, “COMPOSITION COMPRISING DIMETHYLCHALCONE DERIVATIVE FOR PREVENTION OR TREATMENT OF METABOLIC DISEASE” (SEOUL NATIONAL UNIVERSITY R & DB FOUNDATION, priority 2020, published 2023).

Tests used:
Format in all cases: cell-based
[1] = system: rat aortic smooth muscle cells; assay: PDGF-induced migration of vascular smooth muscle cells; settings: 1 µM with 10 ng/mL PDGF; FIG. 4
Experimental: Proliferation and migration of vascular smooth muscle cells are known to be essential steps in the progression of vascular diseases such as restenosis and arteriosclerosis. Therefore, in order to confirm the effect of the DMC derivatives of Example 1 on the migration of rat aortic smooth muscle cells, smooth muscle cells were treated with 10 ng/mL platelet-derived growth factor (PDGF) and 1 µM DMC derivative and cultured. Then, the degree of cell migration was measured.

AMPK = AMPK activity, western blotting of phosphorylated AMPK in C2C12 myotubes; settings: FIG. 2
Description: AMP-activated protein kinase (AMPK) is a member of serine/threonine kinases, and is an enzyme known as an energy sensor which senses the intracellular energy state. Moreover, the activation of AMPK is known to show the effect of increasing glucose transport and promoting fatty acid oxidation in skeletal muscle, and to […] the synthesis of cholesterol and triglycerides, decrease lipogenesis, and increase fatty acid oxidation, and ketogenesis, and the like in the liver. Further, the activation of AMPK is known to reduce adipogenesis in adipose tissue and increase insulin secretion in pancreatic beta cells, thereby being able to be applied to the treatment of various metabolic diseases. Therefore, western blotting was performed in order to confirm the effect of the DMC derivatives of Example 1 on AMPK activity. More specifically, the C2C12 myoblasts were primarily cultured in DMEM supplemented with 10% fetal bovine serum, and then cultured in DMEM supplemented with 2% horse serum for 5 days to differentiate into myotubes. Then, the differentiated myotubes were treated with 10 µM DMC derivative and cultured for 24 hours, and then cells were collected, and disrupted using an ultrasonic disperser to obtain proteins. Next, western blotting was performed using a pAMPK antibody (Cell Signaling Technology) and an AMPK antibody (Cell Signaling Technology) to measure the amount of phosphorylated AMPK. 1 mM AICAR was used as a positive control, and 20 µg of protein was used for each sample in western blotting.

[2] = system: human kidney proximal tubule epithelial cell (HK-2) cell line; assay: Antioxidant effect, intracellular reactive oxygen species (DCF-DA) in HK-2 kidney cells after H2O2; settings: 1 µM for 18 hours, then 500 µM H2O2 for 6 hours, FIG. 6
Experimental: First, the antioxidant effect was checked using kidney cells. More specifically, a human kidney proximal tubule epithelial cell (HK-2) cell line was treated with 1 µM DMC derivative and cultured for 18 hours. Then, 500 µM H2O2 was added to the culture medium and the culture medium was incubated for 6 hours. Thereafter, the amount of intracellular reactive oxygen species (iROS) was measured using dichlorohydro-fluorescein diacetate (DCF-DA).

| SMILES | migration of vascular smooth muscle cells [1] | activity of AMPK (phosphorylated AMPK) (AMPK; 10 µM, 24 hours) | amount of intracellular reactive oxygen species (ROS) [2] | activity of AMPK (phosphorylated AMPK) (AMPK; positive control 1 mM AICAR) |
| --- | --- | --- | --- | --- |
| COc1c(C)c(OC)c(C(=O)/C=C/c2ccc(C(C)C)cc2)c(OC)c1C [Chemical Formula 19, 1-(3′,5′-dimethyl-2′,4′,6′-trimethoxyphenyl)-3-(4-isopropylphenyl)-2-propen-1-one] | similarly or more effectively suppressed cell migration by PDGF than AICAR and Rosi, which were used as positive controls, and DMC | increased the activity of AMPK similarly to or more effectively than the positive controls | – | – |
| COc1ccc(/C=C/C(=O)c2c(OC)c(C)c(OC)c(C)c2OC)cc1 [Chemical Formula 21, 1-(3′,5′-dimethyl-2′,4′,6′-trimethoxyphenyl)-3-(4-methoxyphenyl)-2-propen-1-one] | similarly or more effectively suppressed cell migration by PDGF than AICAR and Rosi, which were used as positive controls, and DMC | increased the activity of AMPK similarly to or more effectively than the positive controls | – | – |
| COc1c(C)c(O)c(C)c(O)c1C(=O)/C=C/c1cccc(F)c1 [Chemical Formula 32, 1-(2′,4′-dihydroxy-6′-methoxy-3′,5′-dimethylphenyl)-3-(3-fluorophenyl)-2-propen-1-one] | – | increased the activity of AMPK similarly to or more effectively than the positive controls | – | – |
| COCOc1c(C)c(O)c(C(=O)/C=C/c2ccc(C)cc2)c(OC)c1C [Chemical Formula 26, 1-(2′-hydroxy-4′-(methoxymethoxy)-6′-methoxy-3′,5′-dimethylphenyl)-3-(4-tolyl)-2-propen-1-one] | similarly or more effectively suppressed cell migration by PDGF than AICAR and Rosi, which were used as positive controls, and DMC | increased the activity of AMPK similarly to or more effectively than the positive controls | – | – |
| COCOc1ccc(/C=C/C(=O)c2c(OC)c(C)c(OC)c(C)c2OC)cc1 [Chemical Formula 20, 1-(3′,5′-dimethyl-2′,4′,6′-trimethoxyphenyl)-3-(4-methoxymethoxyphenyl)-2-propen-1-one] | similarly or more effectively suppressed cell migration by PDGF than AICAR and Rosi, which were used as positive controls, and DMC | increased the activity of AMPK similarly to or more effectively than the positive controls | effectively reduced ROS | – |
| COCOc1c(C)c(O)c(C(=O)/C=C/c2ccc(C(C)C)cc2)c(OC)c1C [Chemical Formula 27, 1-(2′-hydroxy-4′-(methoxymethoxy)-6′-methoxy-3′,5′-dimethylphenyl)-3-(4-isopropylphenyl)-2-propen-1-one] | similarly or more effectively suppressed cell migration by PDGF than AICAR and Rosi, which were used as positive controls, and DMC | increased the activity of AMPK similarly to or more effectively than the positive controls | – | – |
| COc1c(C)c(OC)c(C(=O)/C=C/c2ccc(O)cc2)c(OC)c1C [Chemical Formula 22, 1-(3′,5′-dimethyl-2′,4′,6′-trimethoxyphenyl)-3-(4-hydroxyphenyl)-2-propen-1-one] | similarly or more effectively suppressed cell migration by PDGF than AICAR and Rosi, which were used as positive controls, and DMC | increased the activity of AMPK similarly to or more effectively than the positive controls | – | – |
| COCOc1ccc(/C=C/C(=O)c2c(O)c(C)c(OCOC)c(C)c2OC)cc1 [Chemical Formula 28, 1-(2′-hydroxy-4′-(methoxymethoxy)-6′-methoxy-3′,5′-dimethylphenyl)-3-(4-methoxymethoxyphenyl)-2-propen-1-one] | similarly or more effectively suppressed cell migration by PDGF than AICAR and Rosi, which were used as positive controls, and DMC | increased the activity of AMPK similarly to or more effectively than the positive controls | – | – |
| COCOc1c(C)c(O)c(C(=O)/C=C/c2ccc(OC)cc2)c(OC)c1C [Chemical Formula 29, 1-(2′-hydroxy-4′-(methoxymethoxy)-6′-methoxy-3′,5′-dimethylphenyl)-3-(4-methoxyphenyl)-2-propen-1-one] | similarly or more effectively suppressed cell migration by PDGF than AICAR and Rosi, which were used as positive controls, and DMC | increased the activity of AMPK similarly to or more effectively than the positive controls | – | – |
| NC(=O)c1ncn([C@@H]2O[C@H](CO)[C@@H](O)[C@H]2O)c1N [AICAR, reference compound] | – | – | – | increased the activity of AMPK |
| COc1c(C)c(O)c(C)c(O)c1C(=O)/C=C/c1ccccc1 [DMC, 2′,4′-dihydroxy-6′-methoxy-3′,5′-dimethylchalcone, reference compound] | – | increased the activity of AMPK | – | – |
| COc1ccc(/C=C/C(=O)c2c(O)c(C)c(O)c(C)c2OC)cc1 [Chemical Formula 5, 1-(2′,4′-dihydroxy-6′-methoxy-3′,5′-dimethylphenyl)-3-(4-methoxyphenyl)-2-propen-1-one] | – | increased the activity of AMPK similarly to or more effectively than the positive controls | – | – |
| COc1c(C)c(O)c(C)c(O)c1C(=O)/C=C/c1ccccc1F [Chemical Formula 31, 1-(2′,4′-dihydroxy-6′-methoxy-3′,5′-dimethylphenyl)-3-(2-fluorophenyl)-2-propen-1-one] | similarly or more effectively suppressed cell migration by PDGF than AICAR and Rosi, which were used as positive controls, and DMC | increased the activity of AMPK similarly to or more effectively than the positive controls | effectively reduced ROS | – |
| COc1c(C)c(O)c(C)c(O)c1C(=O)/C=C/c1ccccc1Cl [Chemical Formula 37, 1-(2′,4′-dihydroxy-6′-methoxy-3′,5′-dimethylphenyl)-3-(2-chlorophenyl)-2-propen-1-one] | similarly or more effectively suppressed cell migration by PDGF than AICAR and Rosi, which were used as positive controls, and DMC | increased the activity of AMPK similarly to or more effectively than the positive controls | – | – |
| COc1c(C)c(OC)c(C(=O)/C=C/c2ccccc2)c(OC)c1C [Chemical Formula 17, 1-(3′,5′-dimethyl-2′,4′,6′-trimethoxyphenyl)-3-phenyl-2-propen-1-one] | similarly or more effectively suppressed cell migration by PDGF than AICAR and Rosi, which were used as positive controls, and DMC | – | effectively reduced ROS | – |
| COc1c(C)c(OC)c(C(=O)/C=C/c2ccc(F)cc2)c(OC)c1C [Chemical Formula 16, 1-(3′,5′-dimethyl-2′,4′,6′-trimethoxyphenyl)-3-(4-fluorophenyl)-2-propen-1-one] | similarly or more effectively suppressed cell migration by PDGF than AICAR and Rosi, which were used as positive controls, and DMC | – | effectively reduced ROS | – |
| COc1c(C)c(OC)c(C(=O)/C=C/c2ccc(C)cc2)c(OC)c1C [Chemical Formula 18, 1-(3′,5′-dimethyl-2′,4′,6′-trimethoxyphenyl)-3-(4-tolyl)-2-propen-1-one] | similarly or more effectively suppressed cell migration by PDGF than AICAR and Rosi, which were used as positive controls, and DMC | – | – | – |
| COCOc1c(C)c(O)c(C(=O)/C=C/c2ccccc2F)c(OC)c1C [Chemical Formula 34, 1-(2′-hydroxy-4′-(methoxymethoxy)-6′-methoxy-3′,5′-dimethylphenyl)-3-(2-fluorophenyl)-2-propen-1-one] | similarly or more effectively suppressed cell migration by PDGF than AICAR and Rosi, which were used as positive controls, and DMC | – | – | – |
| COc1c(C)c(O)c(C)c(O)c1C(=O)/C=C/c1ccc(C(C)C)cc1 [Chemical Formula 4, 1-(2′,4′-dihydroxy-6′-methoxy-3′,5′-dimethylphenyl)-3-(4-isopropylphenyl)-2-propen-1-one] | similarly or more effectively suppressed cell migration by PDGF than AICAR and Rosi, which were used as positive controls, and DMC | – | effectively reduced ROS | – |
